Laboratory results taken from PubChem BioAssay AID248 (DTP/NCI, 2004).
Inconclusive results and toxic doses are left out. No stated cut-off is given here; in the data, active means T/C of 150% or more; inactive means T/C below 125%.

Test system: L1210 leukemia ip in BDF1 mice, survival T/C
Assay: NCI In Vivo Anticancer Drug Screen. Data for tumor model L1210 Leukemia (intraperitoneal) in B6D2F1 (BDF1) mice
Settings: endpoint: mean survival time, higher = longer survival
Summary of the method: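 Read-out is survival time, reported as the treated-group measurement over the vehicle-control measurement.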

[1] = dose: 100.0 mg/kg/injection, schedule: Q01DX001 (ip), vehicle: Klucel (hydroxypropylcellulose) (HPC)
[2] = dose: 100.0 mg/kg/injection, schedule: Q01DX009 (ip), vehicle: Klucel (hydroxypropylcellulose) (HPC)
[3] = dose: 100.0 mg/kg/injection, schedule: Q04DX003 (ip), vehicle: Klucel (hydroxypropylcellulose) (HPC)
[4] = dose: 200.0 mg/kg/injection, schedule: Q01DX001 (ip), vehicle: Klucel (hydroxypropylcellulose) (HPC)
[5] = dose: 200.0 mg/kg/injection, schedule: Q01DX009 (ip), vehicle: Klucel (hydroxypropylcellulose) (HPC)
[6] = dose: 200.0 mg/kg/injection, schedule: Q04DX003 (ip), vehicle: Klucel (hydroxypropylcellulose) (HPC)
[7] = dose: 400.0 mg/kg/injection, schedule: Q01DX001 (ip), vehicle: Klucel (hydroxypropylcellulose) (HPC)
[8] = dose: 400.0 mg/kg/injection, schedule: Q01DX009 (ip), vehicle: Klucel (hydroxypropylcellulose) (HPC)
[9] = dose: 400.0 mg/kg/injection, schedule: Q04DX003 (ip), vehicle: Klucel (hydroxypropylcellulose) (HPC)
[10] = dose: 100.0 mg/kg/injection, schedule: Q01DX001 (ip), vehicle: saline
[11] = dose: 200.0 mg/kg/injection, schedule: Q01DX001 (ip), vehicle: saline
[12] = dose: 400.0 mg/kg/injection, schedule: Q01DX001 (ip), vehicle: saline
[13] = dose: 100.0 mg/kg/injection, schedule: Q04DX003 (ip), vehicle: saline
[14] = dose: 200.0 mg/kg/injection, schedule: Q04DX003 (ip), vehicle: saline
[15] = dose: 400.0 mg/kg/injection, schedule: Q04DX003 (ip), vehicle: saline
[16] = dose: 100.0 mg/kg/injection, schedule: Q01DX009 (ip), vehicle: saline with Tween-80
[17] = dose: 200.0 mg/kg/injection, schedule: Q01DX009 (ip), vehicle: saline with Tween-80
[18] = dose: 50.0 mg/kg/injection, schedule: Q01DX001 (ip), vehicle: saline
[19] = dose: 100.0 mg/kg/injection, schedule: Q01DX001 (ip), vehicle: carboxymethylcellulose (CMC)
[20] = dose: 200.0 mg/kg/injection, schedule: Q01DX001 (ip), vehicle: carboxymethylcellulose (CMC)
[21] = dose: 400.0 mg/kg/injection, schedule: Q01DX001 (ip), vehicle: carboxymethylcellulose (CMC)
[22] = dose: 100.0 mg/kg/injection, schedule: Q04DX003 (ip), vehicle: saline with Tween-80
[23] = dose: 200.0 mg/kg/injection, schedule: Q04DX003 (ip), vehicle: saline with Tween-80

Measured: T/C

O=S1(=O)CC(c2cccc3ccccc23)Nc2ccccc21 (configuration not stated)
inactive: [1] 97 % of control | [2] 95 % of control | [3] 95 % of control | [4] 93 % of control | [5] 95 % of control | [6] 90 % of control | [7] 89 % of control | [8] 94 % of control | [9] 97 % of control

CCOC(=O)C(O)(C#CC(C)C)C1CCCC1 (configuration not stated)
inactive: [10] 107 % of control | [11] 105 % of control | [12] 102 % of control

Cc1ccc(NC(=O)Nc2ccc(Nc3ccccc3)cc2)c([N+](=O)[O-])c1
inactive: [3] 94 % of control | [6] 90 % of control | [9] 90 % of control

CC1(CO)CCCC2(C)c3cc(O)ccc3CCC12 (configuration not stated)
inactive: dose: 100.0 mg/kg/injection, schedule: Q01DX009 (ip), vehicle: acetone 90 % of control | [13] 97 % of control | [14] 97 % of control | [15] 97 % of control

CC(=O)c1cccc(NC(=O)Nc2ccc(S(N)(=O)=O)cc2)c1
inactive: [16] 105 % of control | [17] 97 % of control

COC1OC(COS(C)(=O)=O)C(OS(C)(=O)=O)C(OC(=O)c2ccccc2)C1OS(C)(=O)=O (configuration not stated)
inactive: dose: 100.0 mg/kg/injection, schedule: Q04DX002 (ip), vehicle: Klucel (hydroxypropylcellulose) (HPC) 111 % of control | dose: 200.0 mg/kg/injection, schedule: Q04DX002 (ip), vehicle: Klucel (hydroxypropylcellulose) (HPC) 97 % of control | dose: 400.0 mg/kg/injection, schedule: Q04DX002 (ip), vehicle: Klucel (hydroxypropylcellulose) (HPC) 97 % of control

[Br][Hg][c]1ccccc1
inactive: dose: 75.0 mg/kg/injection, schedule: Q01DX001 (ip), vehicle: carboxymethylcellulose (CMC) 108 % of control

CC1CCC(C(C)C)=C(C2CCCCC2)C1 (configuration not stated)
inactive: [13] 98 % of control | [14] 104 % of control | [15] 87 % of control

Nc1nc2c(c(-c3ccccc3)n1)CN(c1ccc(Br)cc1)C2=O
inactive: dose: 50.0 mg/kg/injection, schedule: Q01DX009 (ip), vehicle: saline 95 % of control | dose: 100.0 mg/kg/injection, schedule: Q01DX009 (ip), vehicle: saline 92 % of control | [13] 90 % of control | dose: 200.0 mg/kg/injection, schedule: Q01DX009 (ip), vehicle: saline 92 % of control | [14] 95 % of control | [15] 90 % of control

NC(=NCCCC(NC(=O)OCc1ccccc1)C(=O)NC1C(CO)OC(n2cnc3c(N)ncnc32)C1O)N[N+](=O)[O-] (configuration not stated)
inactive: [18] 90 % of control | [10] 95 % of control | [11] 93 % of control

CCSc1nc(/C=N/NS(=O)(=O)c2ccccc2)c(F)c(=O)[nH]1
inactive: dose: 100.0 mg/kg/injection, schedule: Q01DX001 (ip), vehicle: other 105 % of control | dose: 200.0 mg/kg/injection, schedule: Q01DX001 (ip), vehicle: other 101 % of control | dose: 400.0 mg/kg/injection, schedule: Q01DX001 (ip), vehicle: other 96 % of control

CC(=O)[O][Ge]([CH2]CC(C)C)([CH2]CC(C)C)[CH2]CC(C)C
inactive: dose: 50.0 mg/kg/injection, schedule: Q01DX001 (ip), vehicle: carboxymethylcellulose (CMC) 100 % of control | [18] 100 % of control | [19] 100 % of control | [10] 102 % of control | [20] 100 % of control | [11] 106 % of control | [21] 96 % of control | [12] 118 % of control

Cc1nn2c(=O)[nH]cnc2c1Cl
inactive: [16] 108 % of control | [22] 91 % of control | [17] 108 % of control | [23] 89 % of control | dose: 400.0 mg/kg/injection, schedule: Q01DX009 (ip), vehicle: saline with Tween-80 105 % of control | dose: 400.0 mg/kg/injection, schedule: Q04DX003 (ip), vehicle: saline with Tween-80 92 % of control

S=c1ncn(C2CCCCC2)c(=S)[nH]1
inactive: [3] 95 % of control | [9] 102 % of control

COc1ccc(/C=C2\N=C(c3ccc([N+](=O)[O-])cc3)OC2=O)cc1Br
inactive: dose: 100.0 mg/kg/injection, schedule: Q04DX002 (ip), vehicle: saline 101 % of control | dose: 200.0 mg/kg/injection, schedule: Q04DX002 (ip), vehicle: saline 104 % of control | dose: 400.0 mg/kg/injection, schedule: Q04DX002 (ip), vehicle: saline 115 % of control

ON=C(CCl)CCl
inactive: dose: 6.25 mg/kg/injection, schedule: Q01DX009 (ip), vehicle: saline 89 % of control | dose: 12.5 mg/kg/injection, schedule: Q01DX001 (ip), vehicle: saline 113 % of control | dose: 25.0 mg/kg/injection, schedule: Q01DX001 (ip), vehicle: saline 98 % of control

COC(=O)COC1=NCC([N+](=O)[O-])CC1 (configuration not stated)
inactive: [3] 100 % of control | [6] 107 % of control | [9] 102 % of control

CC(C(=O)O)N(C)C(=O)c1cnc2ccccc2n1 (configuration not stated)
inactive: [19] 94 % of control | dose: 100.0 mg/kg/injection, schedule: Q04DX003 (ip), vehicle: carboxymethylcellulose (CMC) 95 % of control | [20] 96 % of control | dose: 200.0 mg/kg/injection, schedule: Q04DX003 (ip), vehicle: carboxymethylcellulose (CMC) 99 % of control | [21] 89 % of control | dose: 400.0 mg/kg/injection, schedule: Q04DX003 (ip), vehicle: carboxymethylcellulose (CMC) 97 % of control

CCCCCCC(=O)C(C)C
inactive: [2] 93 % of control | [3] 89 % of control | [5] 96 % of control | [6] 88 % of control | [8] 106 % of control | [9] 98 % of control

CCOC(=O)C(C#N)NC(C)=O (configuration not stated)
inactive: [3] 102 % of control | [6] 102 % of control | [9] 111 % of control

CCN(C(C)=O)c1ccc(S(=O)(=O)Cl)cc1
inactive: [22] 97 % of control | [23] 88 % of control

Cc1ccc(S(=O)(=O)NCc2cccc([N+](=O)[O-])c2)cc1
inactive: [1] 102 % of control | [4] 96 % of control | [7] 96 % of control

Fc1ccc2c(c1)CC(CBr)O2 (configuration not stated)
inactive: [18] 100 % of control | [10] 105 % of control | [11] 103 % of control | [12] 103 % of control

CCOC(=O)C(CC(=O)c1ccccc1)C(C)=O (configuration not stated)
inactive: dose: 50.0 mg/kg/injection, schedule: Q01DX009 (ip), vehicle: saline with Tween-80 97 % of control | [16] 93 % of control | [17] 97 % of control
